# Data: patent US20250026762A1, “FUSED PYRAZOLE UREA ANALOGS AS GLUCOSYLCERAMIDE SYNTHASE INHIBITORS” (Merck Sharp & Dohme LLC, priority 2021, published 2025)
# Molecular target: glucosylceramide synthase (GCS) enzyme in Golgi preparations from human A375 malignant melanoma skin cells (Homo sapiens (Human), UniProt Q16739)
# Assay: UDP-Glo glucosylceramide synthase biochemical assay
# Conditions: 1.5 μg crude golgi preparation; C6 ceramide and UDP-glucose at 2×Km; 20 h incubation at room temperature; luminescence
# Description: UDP-Glo™ Glucosylceramide Synthase Biochemical Assay
# A UDP-Glo™ glucosylceramide synthase biochemical assay was utilized to evaluate the effect of test compounds on the activity of endogenous levels of GCS enzyme contained within Golgi preparations isolated from human A375 malignant melanoma skin cells. The UDP-Glo™ glucosylceramide synthase assay uses UDP-Glucose as a nucleotide-glycosyl donor and ceramide as substrate acceptor molecules. In the reaction, glucosylceramide synthase (GCS) transfers glucose from UDP-Glucose to ceramide. Glucosylceramide and UDP are released as products.
# Using Promega's UDP-Glo™ Glycosyltransferase assay kit (Promega Corporation, Madison, WI, USA (Promega)), GCS activity was indirectly measured by detecting the amount of UDP produced. An aliquot of GCS enzyme (1.5 μg crude golgi preparation, total protein) and titrated test compound were aliquoted to each well and incubated for 30 minutes at room temperature. Substrate mixture was prepared by mixing C6 ceramide (Avanti Polar Lipids, Alabaster, AL USA (Avanti)) (micelles prepared at 0.6 mM in 0.6 mM DOPC) and UDP-glucose (20 μM; Promega), at concentrations equivalent to 2×Km, in assay buffer (25 mM HEPES (pH 7.5), 50 mM KCl, 5 mM MgCl2). An equivalent volume of substrate mixture was then added to each well. Following a 20 h incubation at room temperature to allow for GCS turnover of substrate, an equal volume of UDP detection reagent (Promega) was added to each well and incubated for an additional 75 minutes at room temperature to simultaneously convert the accumulated UDP product into ATP and generate light in a luciferase reaction. The generated light was detected using a luminometer. […] luminescence values (RLUs) were normalized to mean “min” and “max” effects, as determined on each plate. “Min” was defined as the mean of the values of the wells treated with vehicle (DMSO) and which represent 0% inhibition; “max” was defined as the mean of the values of the wells treated with a reference inhibitor and which represent the 100% effect. Values for % Emax and EC50 were determined by best-fitting the normalized data to a curve in Activity Base along a four-parameter logistic nonlinear regression (4PL) model (based on the Levenberg-Marquardt algorithm and defined by the equation below): […]
# where: n is 4PMin (bottom of the curve); m is 4PMax (top of the curve); i is IP (inflection point of curve); andp is slope. See Levenberg, K., “A Method for the Solution of Certain Problems in Least Squares”, Quart. Appl. Math. 2, (1944), pp 164-168 and Marquardt, D., “An Algorithm for Least Squares Estimation on Nonlinear Parameters”, SIAM J. Appl. Math. 11, (1963) pp 431-441.
# Chain of glucosylceramide synthase (GCS) enzyme in Golgi preparations from human A375 malignant melanoma skin cells (Q16739 whole entry): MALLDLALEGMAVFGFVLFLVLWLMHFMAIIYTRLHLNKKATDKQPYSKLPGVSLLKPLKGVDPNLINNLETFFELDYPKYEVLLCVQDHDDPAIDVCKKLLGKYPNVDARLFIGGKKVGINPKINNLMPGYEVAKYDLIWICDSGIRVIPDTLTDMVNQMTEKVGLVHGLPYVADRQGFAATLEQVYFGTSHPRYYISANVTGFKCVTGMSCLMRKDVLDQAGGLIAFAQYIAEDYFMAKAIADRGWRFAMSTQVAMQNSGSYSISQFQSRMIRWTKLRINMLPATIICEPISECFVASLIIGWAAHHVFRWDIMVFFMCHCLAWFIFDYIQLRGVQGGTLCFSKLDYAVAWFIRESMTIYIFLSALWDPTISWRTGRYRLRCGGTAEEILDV
row,SMILES,EC50
1,"O=C(N1CCN2CCC1CC2)n1nc(-c2cc(Cl)ccc2F)c2c1COCC2 [Compound 29, (1,4-diazabicyclo[3.2.2]nonan-4-yl)(3-(5-chloro-2-fluorophenyl)-4,7-dihydropyrano[3,4-c]pyrazol-1(5H)-yl)methanone]",3.8 nM
2,"O=C(N1CCN2CCC1CC2)n1nc(-c2ccc(C(F)(F)F)cc2)c2c1COCC2 [Compound 30, (1,4-diazabicyclo[3.2.2]nonan-4-yl)(3-(4-(trifluoromethyl)phenyl)-4,7-dihydropyrano[3,4-c]pyrazol-1(5H)-yl)methanone]",2.7 nM
3,"Cc1ccc(-c2nn(C(=O)N3CCN4CCC3CC4)c3c2CCC3)cc1 [Compound 31, 1,4-diazabicyclo[3.2.2]nonan-4-yl-[3-(p-tolyl)-5,6-dihydro-4H-cyclopenta[c]pyrazol-1-yl]methanone]",0.2 nM
4,"COc1ncc(-c2nn(C(=O)N3CCN4CCC3CC4)c3c2CCOC3)cc1Cl [Compound 32, (1,4-diazabicyclo[3.2.2]nonan-4-yl)(3-(5-chloro-6-methoxypyridin-3-yl)-4,7-dihydropyrano[3,4-c]pyrazol-1(5H)-yl)methanone]",7.6 nM
5,"Cn1nc(C(F)(F)F)cc1-c1nn(C(=O)N2CCN3CCC2CC3)c2c1CCC2 [Compound 33, 1,4-diazabicyclo[3.2.2]nonan-4-yl-[3-[2-methyl-5-(trifluoromethyl)pyrazol-3-yl]-5,6-dihydro-4H-cyclopenta[c]pyrazol-1-yl]methanone]",5.9 nM
6,"COc1nccc(-c2nn(C(=O)N3CCN4CCC3CC4)c3c2CCOC3)c1Cl [Compound 34, (1,4-diazabicyclo[3.2.2]nonan-4-yl)(3-(3-chloro-2-methoxypyridin-4-yl)-4,7-dihydropyrano[3,4-c]pyrazol-1(5H)-yl)methanone]",15.3 nM
7,"O=C(N1CCN2CCC1CC2)n1nc(C2=CCC(F)(F)CC2)c2c1COCC2 [Compound 35, (1,4-diazabicyclo[3.2.2]nonan-4-yl)(3-(4,4-difluorocyclohex-1-en-1-yl)-4,7-dihydropyrano[3,4-c]pyrazol-1(5H)-yl)methanone]",38.5 nM
8,"O=C(N1CCN2CCC1CC2)n1nc(-c2ccc(F)c(Cl)c2)c2c1CCOC2 [Compound 36, (1,4-diazabicyclo[3.2.2]nonan-4-yl)(3-(3-chloro-4-fluorophenyl)-6,7-dihydropyrano[4,3-c]pyrazol-1(4H)-yl)methanone]",0.3 nM
9,"O=C(N1CCN2CCC1CC2)n1nc(C2=CCCC2)c2c1CCC2 [Compound 37, [3-(cyclopenten-1-yl)-5,6-dihydro-4H-cyclopenta[c]pyrazol-1-yl]-(1,4-diazabicyclo[3.2.2]nonan-4-yl)methanone]",3.6 nM
10,"COc1c(F)cccc1-c1nn(C(=O)N2CCN3CCC2CC3)c2c1CCC2 [Compound 38, 1,4-diazabicyclo[3.2.2]nonan-4-yl-[3-(3-fluoro-2-methoxy-phenyl)-5,6-dihydro-4H-cyclopenta[c]pyrazol-1-yl]methanone]",0.6 nM
11,"Cc1cccc(-c2nn(C(=O)N3CCN4CCC3CC4)c3c2COCC3)c1F [Compound 39, (1,4-diazabicyclo[3.2.2]nonan-4-yl)(3-(2-fluoro-3-methylphenyl)-6,7-dihydropyrano[4,3-c]pyrazol-1(4H)-yl)methanone]",0.3 nM
12,"COc1nccc(-c2nn(C(=O)N3CCN4CCC3CC4)c3c2CCC3)c1Cl [Compound 40, [3-(3-chloro-2-methoxy-4-pyridyl)-5,6-dihydro-4H-cyclopenta[c]pyrazol-1-yl]-(1,4-diazabicyclo[3.2.2]nonan-4-yl)methanone]",1.2 nM
13,"COc1cccc(-c2nn(C(=O)N3CCN4CCC3CC4)c3c2CCC3)c1F [Compound 41, 1,4-diazabicyclo[3.2.2]nonan-4-yl-[3-(2-fluoro-3-methoxy-phenyl)-5,6-dihydro-4H-cyclopenta[c]pyrazol-1-yl]methanone]",0.5 nM
14,"O=C(N1CCN2CCC1CC2)n1nc(-c2ccc(F)c(F)c2F)c2c1CCOC2 [Compound 42, (1,4-diazabicyclo[3.2.2]nonan-4-yl)(3-(2,3,4-trifluorophenyl)-6,7-dihydropyrano[4,3-c]pyrazol-1(4H)-yl)methanone]",0.9 nM
15,"O=C(N1CCN2CCC1CC2)n1nc(-c2ccc3c(c2)CCO3)c2c1CCC2 [Compound 43, 1,4-diazabicyclo[3.2.2]nonan-4-yl-[3-(2,3-dihydrobenzofuran-5-yl)-5,6-dihydro-4H-cyclopenta[c]pyrazol-1-yl]methanone]",0.5 nM
16,"COc1ccc(F)c(-c2nn(C(=O)N3CCN4CCC3CC4)c3c2CCC3)c1 [Compound 44, 1,4-diazabicyclo[3.2.2]nonan-4-yl-[3-(2-fluoro-5-methoxy-phenyl)-5,6-dihydro-4H-cyclopenta[c]pyrazol-1-yl]methanone]",1.7 nM
17,"O=C(N1CCN2CCC1CC2)n1nc(-c2cc(F)c(F)cc2F)c2c1CCOC2 [Compound 45, (1,4-diazabicyclo[3.2.2]nonan-4-yl)(3-(2,4,5-trifluorophenyl)-6,7-dihydropyrano[4,3-c]pyrazol-1(4H)-yl)methanone]",2.3 nM
18,"O=C(N1CCN2CCC1CC2)n1nc(-c2cc(F)c(F)c(F)c2)c2c1CCOC2 [Compound 46, (1,4-diazabicyclo[3.2.2]nonan-4-yl)(3-(3,4,5-trifluorophenyl)-6,7-dihydropyrano[4,3-c]pyrazol-1(4H)-yl)methanone]",4.6 nM
19,"COc1ncc(-c2nn(C(=O)N3CCN4CCC3CC4)c3c2COCC3)cc1Cl [Compound 47, (1,4-diazabicyclo[3.2.2]nonan-4-yl)(3-(5-chloro-6-methoxypyridin-3-yl)-6,7-dihydropyrano[4,3-c]pyrazol-1(4H)-yl)methanone]",8.3 nM
20,"O=C(N1CCN2CCC1CC2)n1nc(-c2ccc(Cl)cn2)c2c1CCOC2 [Compound 48, (1,4-diazabicyclo[3.2.2]nonan-4-yl)(3-(5-chloropyridin-2-yl)-6,7-dihydropyrano[4,3-c]pyrazol-1(4H)-yl)methanone]",2 nM
21,"O=C(N1CCN2CCC1CC2)n1nc(-c2cc(Cl)c(F)cn2)c2c1COCC2 [Compound 49, (1,4-diazabicyclo[3.2.2]nonan-4-yl)(3-(4-chloro-5-fluoropyridin-2-yl)-4,7-dihydropyrano[3,4-c]pyrazol-1(5H)-yl)methanone]",8.3 nM
22,"O=C(N1CCN2CCC1CC2)n1nc(-c2ccc(F)c(Cl)c2)c2c1COC2 [Compound 50, (1,4-diazabicyclo[3.2.2]nonan-4-yl)(3-(3-chloro-4-fluorophenyl)-4,6-dihydro-1H-furo[3,4-c]pyrazol-1-yl)methanone]",14.9 nM
23,"O=C(N1CCN2CCC1CC2)n1nc(N2CCC(F)(F)CC2)c2c1CCC2 [Compound 51, (1,4-diazabicyclo[3.2.2]nonan-4-yl)(3-(4,4-difluoropiperidin-1-yl)-5,6-dihydrocyclopenta[c]pyrazol-1(4H)-yl)methanone]",7 nM
24,"O=C(N1CCN2CCC1CC2)n1nc(N2CCC3(CC2)CC3)c2c1COCC2 [Compound 52, (3-(6-azaspiro[2.5]octan-6-yl)-4,7-dihydropyrano[3,4-c]pyrazol-1(5H)-yl)(1,4-diazabicyclo[3.2.2]nonan-4-yl)methanone]",18.3 nM
25,"O=C(N1CCN2CCC1CC2)n1nc(-n2cc(C(F)(F)F)cn2)c2c1COCC2 [Compound 53, (1,4-diazabicyclo[3.2.2]nonan-4-yl)(3-(4-(trifluoromethyl)-1H-pyrazol-1-yl)-4,7-dihydropyrano[3,4-c]pyrazol-1(5H)-yl)methanone]",4.1 nM
26,"O=C(N1CCN2CCC1CC2)n1nc(-n2cc(C(F)(F)F)cn2)c2c1CCC2 [Compound 54, (1,4-diazabicyclo[3.2.2]nonan-4-yl)(3-(4-(trifluoromethyl)-1H-pyrazol-1-yl)-5,6-dihydrocyclopenta[c]pyrazol-1(4H)-yl)methanone]",0.8 nM
27,"O=C(N1CCN2CCC1CC2)n1nc(-n2cc(Cl)cn2)c2c1COCC2 [Compound 55, (1,4-diazabicyclo[3.2.2]nonan-4-yl)(3-(4-chloro-1H-pyrazol-1-yl)-4,7-dihydropyrano[3,4-c]pyrazol-1(5H)-yl)methanone]",10.4 nM
28,"O=C(N1CCN2CCC1CC2)n1nc(-n2cc(Cl)cn2)c2c1CCC2 [Compound 56, (1,4-diazabicyclo[3.2.2]nonan-4-yl)(3-(4-chloro-1H-pyrazol-1-yl)-5,6-dihydrocyclopenta[c]pyrazol-1(4H)-yl)methanone]",3 nM
